Like-named read-outs stand apart in the source and are kept apart here. Blank lines part the entries; values can stand above or below the compound they belong to.
What was measured:
aldose reductase = target: T1, aldose reductase (Rattus norvegicus, UniProt P07943); assay: Inhibition of aldose reductase enzyme activity (Kador and Sharpless method, water soluble extracts of rat lenses); assay type: biochemical; details: for IC50: rat lens extract; for inhibition at 0.02 µM: 2.0 × 10^-8 M
T1 construct: water soluble extracts of rat lenses; from tissue; host or cells: rat lens (water-soluble extract)

[1] = system: polyol increase in the sciatic nerve of galactosemic rats; assay: Reduction or inhibition of polyol (galactitol) increase in the sciatic nerve of galactosemic rats; assay type: in vivo, rat; details: for ED50: once a day for eight days, 30% galactose diet, sciatic nerve galactitol
Procedure: The compounds according to the invention were tested for their ability to reduce or inhibit polyol increase in the sciatic nerve of galactosemic rats. Rats were fed 30% galactose diet and were administered the compounds at the various doses of 0.4-50 mg/kg once a day for eight days. One day after the final administration (on 9th day), sciatic nerves were removed for galactitol determination. […] The selected control compounds are typical one described in the aforesaid Japanese Unexamined Patent Application Gazette.

[2] = Table 1, 10^-5 M, read-out: Inhibition (%)
[3] = Table 1, 3.3 × 10^-8 M, read-out: Inhibition (%)
[4] = Table 1, 10^-7 M, read-out: Inhibition (%)
[5] = Rattus norvegicus, 192 h, Table 4, read-out: ED50
[6] = Table 2, 3.3 × 10^-8 M, read-out: Inhibition (%)
[7] = Table 2, 10^-7 M, read-out: Inhibition (%)
[8] = Table 2, 10^-8 M, read-out: Inhibition (%)
[9] = Rattus norvegicus, 192 h, Table 3, read-out: ED50

SMILES: O=C1NC(=O)C2(CC(C(=O)O)Oc3ccc(F)cc32)N1 (racemic) [Example 1, dl-6-fluoro-2,3-dihydro-2',5'-dioxo-spiro[4H-1-benzopyran-4,4'-imidazolidine]-2-carboxylic acid]
potency of the major diastereomer vs minor diastereomer in inhibition of polyol increase ([1]; sciatic nerve of galactosemic rats): higher than that of the minor diastereomer

SMILES: O=C1NC(=O)C2(CC(CBr)Oc3ccc(F)cc32)N1 (racemic) [G, dl-2-Bromomethyl-6-fluoro-2,3-dihydro-spiro[4H-1-benzopyran-4,4'-imidazolidine]-2',5'-dione]
inhibition at 0.33 µM (aldose reductase; Table 1, 3.3 × 10^-7 M): 70%
inhibition at 0.033 µM (aldose reductase; [3]): 22%
inhibition at 0.1 µM (aldose reductase; [4]): 42%
IC50 (aldose reductase; Table 1): 130 nM
ED50 [1, 5]: 7.2 mg/kg

SMILES: O=C1NC(=O)C2(CCOc3ccc(F)cc32)N1 (stereo not drawn) [S, 1-6-Fluoro-2,3-dihydro-spiro[4H-1-benzopyran-4,4'-imidazolidine]-2',5'-dione, reference compound]
inhibition at 10 µM (aldose reductase; [2]): 32%

SMILES: NC(=O)C1CC2(NC(=O)NC2=O)c2cc(F)ccc2O1 (stereo not drawn) [C, 1-6-Fluoro-2,3-dihydro-2',5'-dioxo-spiro[4H-1-benzopyran-4,4'-imidazolidine]-2-carboxamide]
inhibition at 10 µM (aldose reductase): 27%

SMILES: NC(=O)C1CC2(NC(=O)NC2=O)c2cc(F)ccc2O1 (racemic) [A, dl-6-Fluoro-2,3-dihydro-2',5'-dioxo-spiro[4H-1-benzopyran-4,4'-imidazolidine]-2-carboxamide]
inhibition at 0.01 µM (aldose reductase): 21%
inhibition at 0.033 µM (aldose reductase): 51%
inhibition at 0.1 µM (aldose reductase): 80%
ED50 [1, 9]: 3.3 mg/kg

SMILES: NC(=O)[C@H]1CC2(NC(=O)NC2=O)c2cc(F)ccc2O1 (stereo partly drawn) [B, d-6-Fluoro-2,3-dihydro-2',5'-dioxo-spiro[4H-1-benzopyran-4,4'-imidazolidine]-2-carboxamide]
inhibition at 0.01 µM (aldose reductase): 39%
inhibition at 0.033 µM (aldose reductase): 80%
inhibition at 0.1 µM (aldose reductase): 93%
ED50 [1, 9]: 1.3 mg/kg

SMILES: Nc1cc(F)cc2c1OC(CCl)CC21NC(=O)NC1=O (racemic) [O, dl-8-Amino-2-chloromethyl-6-fluoro-2,3-dihydro-spiro[4H-1-benzopyran-4,4'-imidazolidine]-2',5'-dione]
inhibition at 0.33 µM (aldose reductase; Table 2, 3.3 × 10^-7 M): 68%
inhibition at 1 µM (aldose reductase; Table 2, 10^-6 M): 85%
inhibition at 0.1 µM (aldose reductase; [7]): 38%
IC50 (aldose reductase; Table 2): 170 nM

SMILES: O=C1NC(=O)C2(CC(CBr)Oc3ccc(F)cc32)N1 (stereo not drawn) [H, d-2-Bromomethyl-6-fluoro-2,3-dihydro-spiro[4H-1-benzopyran-4,4'-imidazolidine]-2',5'-dione]
inhibition at 0.33 µM (aldose reductase; Table 1, 3.3 × 10^-7 M): 82%
inhibition at 0.033 µM (aldose reductase; [3]): 35%
inhibition at 0.1 µM (aldose reductase; [4]): 59%
IC50 (aldose reductase; Table 1): 68 nM
ED50 [1, 5]: 2.2 mg/kg

SMILES: CC(=O)Nc1cc(F)cc2c1O[C@@H](C(N)=O)CC21NC(=O)NC1=O (stereo partly drawn) [P, d-8-Acetamido-6-fluoro-2,3-dihydro-2',5'-dioxo-spiro[4H-1-benzopyran-4,4'-imidazolidine]-2-carboxamide]
inhibition at 0.02 µM (aldose reductase; Table 2): 56%
inhibition at 0.033 µM (aldose reductase; [6]): 69%
inhibition at 0.01 µM (aldose reductase; [8]): 30%
IC50 (aldose reductase; Table 2): 18 nM

Second part, led by results:

inhibition at 3.3 µM (aldose reductase; Table 1, 3.3 × 10^-6): 52%
inhibition at 10 µM (aldose reductase; [2]): 74%
inhibition at 1 µM (aldose reductase; Table 1, 10^-6 M): 28%
IC50 (aldose reductase; Table 1): 2900 nM
SMILES: O=C1NC(=O)C2(CC(CCl)Oc3ccc(F)cc32)N1 (stereo not drawn) [F, 1-2-Chloromethyl-6-fluoro-2,3-dihydro-spiro[4H-1-benzopyran-4,4'-imidazolidine]-2',5'-dione]

inhibition at 0.033 µM (aldose reductase; [3]): 38%
inhibition at 0.1 µM (aldose reductase; [4]): 66%
inhibition at 0.01 µM (aldose reductase; Table 1, 10^-8 M, read-out: Inhibition (%)): 21%
IC50 (aldose reductase; Table 1): 47 nM
SMILES: O=C1NC(=O)C2(CC(CCl)Oc3ccc(F)cc32)N1 (stereo not drawn) [Compound E, d-2-Chloromethyl-6-fluoro-2,3-dihydro-spiro[4H-1-benzopyran-4,4'-imidazolidine]-2',5'-dione]
ED50 [1, 5]: 0.6 mg/kg

inhibition at 0.33 µM (aldose reductase; Table 2, 3.3 × 10^-7 M): 81%
inhibition at 0.033 µM (aldose reductase; [6]): 30%
inhibition at 0.1 µM (aldose reductase; [7]): 59%
IC50 (aldose reductase; Table 2): 76 nM
SMILES: O=C1NC(=O)C2(CC(CCl)Oc3c([N+](=O)[O-])cc(F)cc32)N1 (racemic) [N, dl-2-Chloromethyl-6-fluoro-2,3-dihydro-8-nitro-spiro[4H-1-benzopyran-4,4'-imidazolidine]-2',5'-dione]

inhibition at 3.3 µM (aldose reductase; Table 1, 3.3 × 10^-6): 85%
inhibition at 0.33 µM (aldose reductase; Table 1, 3.3 × 10^-7 M): 46%
inhibition at 0.033 µM (aldose reductase; [3]): 10%
inhibition at 1 µM (aldose reductase; Table 1, 10^-6 M): 71%
inhibition at 0.1 µM (aldose reductase; [4]): 17%
SMILES: O=C1NC(=O)C2(CCOc3ccc(F)cc32)N1 (stereo not drawn) [Q, d1-6-Fluoro-2,3-dihydro-spiro[4H-1-benzopyran-4,4'-imidazolidine]-2',5'-dione, reference compound]
ED50 [1, 5]: 31.5 mg/kg
ED50 ([1]; Table 3): 36.6 mg/kg

Inhibition (%) (aldose reductase; Table 1, 3.3 × 10^-6): 88%
Inhibition (%) (aldose reductase; Table 1, 3.3 × 10^-7 M): 61%
Inhibition (%) (aldose reductase; Table 1, 3.3 × 10^-8 M): 15%
Inhibition (%) (aldose reductase; Table 1, 10^-6 M): 80%
Inhibition (%) (aldose reductase; Table 1, 10^-7 M): 34%
inhibition at 0.33 µM (aldose reductase; Table 2, 3.3 × 10^-7 M): 59%
inhibition at 0.033 µM (aldose reductase; [6]): 24%
inhibition at 1 µM (aldose reductase; Table 2, 10^-6 M): 76%
inhibition at 0.1 µM (aldose reductase; [7]): 29%
SMILES: O=C1NC(=O)C2(CCOc3ccc(F)cc32)N1 (stereo not drawn) [R, d-6-Fluoro-2,3-dihydro-spiro[4H-1-benzopyran-4,4'-imidazolidine]-2',5'-dione, reference compound]
ED50 ([1]; Table 3): 18.0 mg/kg

inhibition at 0.033 µM (aldose reductase; [6]): 40%
inhibition at 0.1 µM (aldose reductase; [7]): 74%
inhibition at 0.01 µM (aldose reductase; [8]): 13%
IC50 (aldose reductase; Table 2): 44 nM
SMILES: NC(=O)C1CC2(NC(=O)NC2=O)c2cc(F)cc(N)c2O1 (racemic) [M, dl-8-Amino-6-fluoro-2,3-dihydro-2',5'-dioxo-spiro[4H-1-benzopyran-4,4'-imidazolidine]-2-carboxamide]

inhibition at 0.33 µM (aldose reductase; Table 1, 3.3 × 10^-7 M): 78%
inhibition at 0.033 µM (aldose reductase; [3]): 28%
inhibition at 0.1 µM (aldose reductase; [4]): 53%
IC50 (aldose reductase; Table 1): 90 nM
SMILES: O=C1NC(=O)C2(CC(CCl)Oc3ccc(F)cc32)N1 (racemic) [D, dl-2-Chloromethyl-6-fluoro-2,3-dihydro-spiro[4H-1-benzopyran-4,4'-imidazolidine]-2',5'-dione]
ED50 [1, 5]: 1.3 mg/kg

inhibition at 0.033 µM (aldose reductase; [6]): 60%
inhibition at 0.1 µM (aldose reductase; [7]): 70%
inhibition at 0.01 µM (aldose reductase; [8]): 27%
IC50 (aldose reductase; Table 2): 25 nM
SMILES: NC(=O)[C@H]1CC2(NC(=O)NC2=O)c2cc(F)cc(N)c2O1 (stereo partly drawn) [K, d-8-Amino-6-fluoro-2,3-dihydro-2',5'-dioxo-spiro[4H-1-benzopyran-4,4'-imidazolidine]-2-carboxamide]

inhibition at 0.02 µM (aldose reductase; Table 2): 69%
inhibition at 0.033 µM (aldose reductase; [6]): 82%
inhibition at 0.01 µM (aldose reductase; [8]): 35%
IC50 (aldose reductase; Table 2): 14 nM
SMILES: NC(=O)[C@H]1CC2(NC(=O)NC2=O)c2cc(F)cc([N+](=O)[O-])c2O1 (stereo partly drawn) [J, d-6-Fluoro-2,3-dihydro-8-nitro-2',5'-dioxo-spiro[4H-1-benzopyran-4,4'-imidazolidine]-2-carboxamide]

inhibition at 0.033 µM (aldose reductase; [6]): 50%
inhibition at 0.1 µM (aldose reductase; [7]): 88%
inhibition at 0.01 µM (aldose reductase; [8]): 15%
IC50 (aldose reductase; Table 2): 31 nM
SMILES: NC(=O)C1CC2(NC(=O)NC2=O)c2cc(F)cc([N+](=O)[O-])c2O1 (racemic) [L, dl-6-Fluoro-2,3-dihydro-8-nitro-2',5'-dioxo-spiro[4H-1-benzopyran-4,4'-imidazolidine]-2-carboxamide]

inhibition at 3.3 µM (aldose reductase; Table 1, 3.3 × 10^-6): 54%
inhibition at 10 µM (aldose reductase; [2]): 75%
inhibition at 1 µM (aldose reductase; Table 1, 10^-6 M): 31%
IC50 (aldose reductase; Table 1): 2700 nM
SMILES: O=C1NC(=O)C2(CC(CBr)Oc3ccc(F)cc32)N1 (stereo not drawn) [I, 1-2-Bromomethyl-6-fluoro-2,3-dihydro-spiro[4H-1-benzopyran-4,4'-imidazolidine]-2',5'-dione]

Reference: patent US5001240A, “Process for preparing optically active hydantoins” (Sanwa Kagaku Kenkyyusho Co., Ltd., priority 1986, dated 1991)
